# Measured values from EP0630648A1, “Use of acyl L-carnitine gamma-hydroxybutyrate for the treatment of drug addiction” (Sigma-Tau Industrie Farmaceutiche Riunite S.p.A., priority 1993, dated 1994).
# Marks after values point to notes of the source that are not given here.
# Key:
# [1] = system: male Wistar rats; test: Hot-plate test: onset of habituation to the analgesic action of morphine; type: in vivo; settings: for mean latency: after 15 days of daily morphine, substance 100 mg/kg i.p., morphine 10 mg/kg i.p., plate 51°C
# Method: Morphine addiction was induced in the rats by daily injections for a period of 15 days.
# Five different groups of animals also received saline solution, VCGB, GHB, LAC or VC (100 mg/kg i.p.), respectively.
# [2] = system: male Wistar rats; test: Withdrawal syndrome due to naloxone administration in morphine-treated rats; type: in vivo; settings: morphine for 10 days; for Weight loss: mean loss of body weight 1 hour after naloxone injection (1 mg/kg subcutaneous); for Latency of stereotype jumps: then naloxone 1 mg/kg subcutaneous, cut-off time 900 sec.
# Method: After repeated treatment with morphine for a period of 10 days, the rats were all weighed and administered naloxone (1 mg/kg dissolved in saline solution) by subcutaneous injection. The resulting withdrawal syndrome was assessed by measuring the latency of onset of "stereotype jumps" from a circular platform measuring 35 cm in diameter and 70 cm in height. A cut-off time of 900 sec. was used. In 5 groups of animals, naloxone administration was combined with administration of saline, VCGB, GHB, LAC and VC, respectively.
# The body weight of the animals was then measured again 1 hour after naloxone injection and the mean loss of body weight was calculated for each group of animals treated.
# [3] = system: male Wistar rats; test: Heroin self-administration behaviour in rats; settings: 100 mg/kg daily intraperitoneal; for number of heroin self-administrations: in the space of 3 hours
SMILES,mean latency ([1]; T 0) [s],mean latency ([1]; T 30),mean latency ([1]; T 240),Weight loss [2] [g],Latency of stereotype jumps [2] [s],number of heroin self-administrations ([3]; 3rd day),number of heroin self-administrations ([3]; 4th day),number of heroin self-administrations ([3]; 5th day),"effect on habituation to morphine-induced analgesia (in words) ([1]; summary of the table, 100 mg/kg i.p.)",effect on number of heroin self-administrations (in words) ([3]; summary of the table)
"O=C(O)CCCO [GHB, gamma-hydroxybutyric acid]",5.5,13.0* sec.,6.0 s,15.5 ± 0.6,451 ± 63,7.5 ± 0.6,8.0 ± 0.7,9.0 ± 0.6,,
"CC(C)CC(=O)O[C@H](CC(=O)[O-])C[N+](C)(C)C [VC, isovaleryl L-carnitine]",6.0,10.0* sec.,6.0 s,16.6 ± 2.1,480 ± 99,7.2 ± 0.5,9.5 ± 0.5,8.8 ± 0.5,,
"CC(C)CC(=O)O[C@H](CC(=O)OCCCC(=O)[O-])C[N+](C)(C)C [VCGB, isovaleryl L-carnitine gamma-hydroxybutyrate]",6.5,14.0* sec.,10.0* sec.,12.3 ± 0.6,564 ± 69,6.3 ± 0.5,6.8 ± 0.4,6.3 ± 0.5,reduce habituation to morphine-induced analgesia to an appreciable extent,very long-lasting action in reducing the number of self-administrations
"CC(=O)OC(CC(=O)[O-])C[N+](C)(C)C [LAC, acetyl L-carnitine]",6.0,10.0* sec.,6.0 s,18.6 ± 2.1,465 ± 99,7.0 ± 0.5,9.2 ± 0.5,8.9 ± 0.8,,
